Source: patent US9085576B2 (AMGEN INC., priority 2013, dated 2015)
Where a name gives a salt, the structure may show the parent alone.

Tests used:
[1] = biological target: Beta Secretase enzyme (BACE) (Homo sapiens (Human), UniProt P56817); assay: In vitro enzymatic BACE FRET assay; format: biochemical; conditions: read-out: BACE1 Enzyme assay IC50
Protocol: In Vitro Enzymatic BACE FRET (Fluorescence Resonance Energy Transfer) Assay (Enzyme Assay Data in the Example Table I)
The assay buffer used in this screen is 0.05 M acetate, pH 4.2, 10% DMSO final, 100 uM genapol (which is a nonionic detergent, below its Critical Micelle Concentration). […] This assay is effectively started by the addition of FRET substrate (50 nM) and the combination is incubated for one hour. The FRET assay is terminated with by addition of Tris buffer, which raises the pH to neutrality, and the fluorescence is determined. The FRET substrate is a peptide with commercially available fluorophore and quencher, on opposite sides of the BACE cleavage site.

Cathepsin D (Cat D) = Cathepsin D (Cat D) (Homo sapiens (Human), UniProt P07339); assay: In vitro enzymatic Cathepsin D (Cat D) FRET assay; format: biochemical; conditions: read-out: CatD IC50
BACE = BACE (Homo sapiens (Human), UniProt P56817); assay: In vitro BACE cell-based assay (Aβ40 in conditioned medium, sandwich ELISA)
BACE, sequence (P56817 46-501, species assumed): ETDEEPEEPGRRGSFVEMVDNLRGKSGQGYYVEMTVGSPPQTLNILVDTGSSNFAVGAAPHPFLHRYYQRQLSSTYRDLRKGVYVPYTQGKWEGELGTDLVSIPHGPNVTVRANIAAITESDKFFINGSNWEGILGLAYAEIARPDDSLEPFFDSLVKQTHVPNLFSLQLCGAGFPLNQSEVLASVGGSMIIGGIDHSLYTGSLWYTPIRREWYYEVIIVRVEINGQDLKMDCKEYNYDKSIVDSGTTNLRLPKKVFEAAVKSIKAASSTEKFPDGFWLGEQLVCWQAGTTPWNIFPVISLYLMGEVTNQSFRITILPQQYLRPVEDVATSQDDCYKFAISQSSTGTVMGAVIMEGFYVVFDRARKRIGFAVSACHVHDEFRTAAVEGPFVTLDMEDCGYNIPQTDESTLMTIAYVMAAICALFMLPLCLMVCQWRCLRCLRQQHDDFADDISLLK

Beta Secretase enzyme (BACE), sequence (P56817 46-501): as the sequence (P56817 46-501, species assumed) above
Cathepsin D (Cat D), sequence (P07339 65-412, species assumed): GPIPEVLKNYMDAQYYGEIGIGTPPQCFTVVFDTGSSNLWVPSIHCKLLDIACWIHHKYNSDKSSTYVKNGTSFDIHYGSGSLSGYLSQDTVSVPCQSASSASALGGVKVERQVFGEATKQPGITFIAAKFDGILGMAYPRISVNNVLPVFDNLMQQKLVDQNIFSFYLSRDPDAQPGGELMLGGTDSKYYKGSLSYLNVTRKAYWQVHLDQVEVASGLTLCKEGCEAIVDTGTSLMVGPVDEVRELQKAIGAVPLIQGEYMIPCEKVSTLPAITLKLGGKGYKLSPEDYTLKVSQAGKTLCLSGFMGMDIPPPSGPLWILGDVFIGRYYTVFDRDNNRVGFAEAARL

**Q.** With `C[C@H](F)c1nc(C(=O)Nc2ccc(F)c([C@@]3(C(F)F)N=C(N)O[C@@H]4C[C@@H]43)c2)co1` (mixture of isomers) [Example 175, N-(3-((1R,5S,6R)-3-amino-5-(difluoromethyl)-2-oxa-4-azabicyclo[4.1.0]hept-3-en-5-yl)-4-fluorophenyl)-2-(1-fluoroethyl)oxazole-4-carboxamide 2,2,2-trifluoroacetate] as the compound, how does the IC50 [1] read?
**A.** The IC50 was 2.88 µM.

**Q.** And the IC50 (Cathepsin D (Cat D))?
**A.** Its IC50 is 1340 µM.

**Q.** And the IC50 (BACE)?
**A.** The IC50 was 2.48 µM.

**Q.** What does the source list for `NC1=N[C@@](c2cc(NC(=O)[C@H]3CCCO3)ccc2F)(C(F)F)[C@H]2C[C@H]2O1` (mixture of isomers) [Example 244, (S,R)-N-(3-((1R,5S,6R)-3-amino-5-(difluoromethyl)-2-oxa-4-azabicyclo[4.1.0]hept-3-en-5-yl)-4-fluorophenyl) tetrahydrofuran-2-carboxamide]?
**A.** IC50 [1]: 5.37 µM; IC50 (Cathepsin D (Cat D)): 319 µM; IC50 (BACE): 1.98 µM

**Q.** With `C[C@H](C(=O)Nc1ccc(F)c([C@@]2(C(F)F)N=C(N)O[C@@H]3C[C@@H]32)c1)c1ccc(Cl)cc1` (mixture of isomers) [Example 252, N-(3-((1R,5S,6R)-3-amino-5-(difluoromethyl)-2-oxa-4-azabicyclo[4.1.0]hept-3-en-5-yl)-4-fluorophenyl)-2-(4-chlorophenyl) propanamide] as the compound, how does the IC50 [1] read?
**A.** Its IC50 is greater than 40 µM.

**Q.** And the IC50 (Cathepsin D (Cat D))?
**A.** Its IC50 is 270 µM.

**Q.** And the IC50 (BACE)?
**A.** Its IC50 is greater than 15.6 µM.

**Q.** Which results are given for `NC1=N[C@@](c2cc(NC(=O)[C@@H]3CCOC3)ccc2F)(C(F)F)[C@H]2C[C@H]2O1` (mixture of isomers) [Example 253, (R,S)-N-(3-((1R,5S,6R)-3-amino-5-(difluoromethyl)-2-oxa-4-azabicyclo[4.1.0]hept-3-en-5-yl)-4-fluorophenyl) tetrahydrofuran-3-carboxamide]?
**A.** IC50 [1]: 34.3 µM; IC50 (Cathepsin D (Cat D)): 188 µM; IC50 (BACE): > 15.6 µM

**Q.** `CO[C@H](C)C(=O)Nc1ccc(F)c([C@@]2(C(F)F)N=C(N)O[C@@H]3C[C@@H]32)c1` (mixture of isomers) [Example 257, (R,S)-N-(3-((1R,5S,6R)-3-amino-5-(difluoromethyl)-2-oxa-4-azabicyclo[4.1.0]hept-3-en-5-yl)-4-fluorophenyl)-2-methoxypropanamide] was tested. Which IC50 [1] did it give?
**A.** The IC50 was 1.84 µM.

**Q.** What about the IC50 (Cathepsin D (Cat D)) of the same compound?
**A.** The IC50 was 377 µM.

**Q.** What about the IC50 (BACE) of the same compound?
**A.** Its IC50 is 2.54 µM.

**Q.** `C[C@H](C#N)Oc1ccc(C(=O)Nc2ccc(F)c([C@@]3(C(F)F)N=C(N)O[C@@H]4C[C@@H]43)c2)nc1` (mixture of isomers) [Example 259] was tested. Which IC50 [1] did it give?
**A.** Its IC50 is 0.659 µM.

**Q.** And the IC50 (Cathepsin D (Cat D))?
**A.** The IC50 was 668 µM.

**Q.** What about the IC50 (BACE) of the same compound?
**A.** The IC50 was 0.473 µM.

**Q.** Which IC50 [1] does the source give for `C[C@@H](Nc1ccc(F)c([C@@]2(C(F)F)N=C(N)O[C@@H]3C[C@@H]32)c1)c1ccc(Cl)cn1` (mixture of isomers) [Example 378, (1R,5S,6R)-5-(5-(((R)-1-(5-chloropyridin-2-yl)ethyl)amino)-2-fluorophenyl)-5-(difluoromethyl)-2-oxa-4-azabicyclo[4.1.0]hept-3-en-3-amine and (1R,5S,6R)-5-(5-(((S)-1-(5-chloropyridin-2-yl)ethyl)amino)-2-fluorophenyl)-5-(difluoromethyl)-2-oxa-4-azabicyclo[4.1.0]hept-3-en-3-amine] here?
**A.** Its IC50 is 13.8 µM.

**Q.** What about the IC50 (Cathepsin D (Cat D)) of the same compound?
**A.** Its IC50 is 77.4 µM.

**Q.** What about the IC50 (BACE) of the same compound?
**A.** The IC50 was 2.13 µM.

**Q.** Which results are given for `NC1=N[C@@](c2cc(NC(=O)c3cnc(OCC4CCOC4)cn3)ccc2F)(C(F)F)[C@H]2C[C@H]2O1` (mixture of isomers) [Example 413]?
**A.** IC50 [1]: 0.145 µM; IC50 (Cathepsin D (Cat D)): > 400 µM; IC50 (BACE): 0.865 µM

**Q.** Which results are given for `NC1=N[C@](c2cc(NC(=O)c3ccc(Cl)cn3)ccc2F)(C(F)F)[C@@H]2C[C@@H]2O1` (racemic) [Example 55, N-(3-([1(R,S),5(S,R),6(R,S)]-3-amino-5-(difluoromethyl)-2-oxa-4-azabicyclo[4.1.0]hept-3-en-5-yl)-4-fluorophenyl)-5-chloropicolinamide]?
**A.** IC50 [1]: 0.0362 µM; IC50 (Cathepsin D (Cat D)): 860 µM; IC50 (BACE): 0.0431 µM

**Q.** For `COc1cnc(C(=O)Nc2ccc(F)c([C@]3(C(F)F)N=C(N)O[C@H]4C[C@H]43)c2)c(C)n1` (racemic) [Example 58, N-(3-([1(R,S),5(S,R),6(R,S)]-3-amino-5-(difluoromethyl)-2-oxa-4-azabicyclo[4.1.0]hept-3-en-5-yl)-4-fluorophenyl)-5-methoxy-3-methylpyrazine-2-carboxamide], which IC50 [1] is on record?
**A.** Its IC50 is 0.158 µM.

**Q.** What about the IC50 (Cathepsin D (Cat D)) of the same compound?
**A.** Its IC50 is 822 µM.

**Q.** And the IC50 (BACE)?
**A.** Its IC50 is 0.179 µM.

**Q.** `Cc1c(C(=O)Nc2ccc(F)c([C@]3(C(F)F)N=C(N)O[C@H]4C[C@H]43)c2)nc2ccc(Cl)cn12` (racemic) [Example 61, N-(3-([1(R,S),5(S,R),6(R,S)]-3-amino-5-(difluoromethyl)-2-oxa-4-azabicyclo[4.1.0]hept-3-en-5-yl)-4-fluorophenyl)-6-chloro-3-methylimidazo[1,2-a]pyridine-2-carboxamide] was tested. Which IC50 [1] did it give?
**A.** Its IC50 is 0.167 µM.

**Q.** What about the IC50 (Cathepsin D (Cat D)) of the same compound?
**A.** The IC50 was 1780 µM.

**Q.** And the IC50 (BACE)?
**A.** Its IC50 is 0.0701 µM.

**Q.** With `NC1=N[C@](c2cc(NC(=O)c3ccc(Cl)cn3)cnc2F)(C(F)F)[C@@H]2C[C@@H]2O1` (racemic) [Example 73, N-(5-([1(R,S),5(S,R),6(R,S)]-3-amino-5-(difluoromethyl)-2-oxa-4-azabicyclo[4.1.0]hept-3-en-5-yl)-6-fluoropyridin-3-yl)-5-chloropicolinamide] as the compound, how does the IC50 [1] read?
**A.** The IC50 was 0.115 µM.

**Q.** What about the IC50 (Cathepsin D (Cat D)) of the same compound?
**A.** Its IC50 is 274 µM.

**Q.** And the IC50 (BACE)?
**A.** The IC50 was 0.331 µM.

**Q.** What does the source list for `NC1=N[C@@](c2cc(NC(=O)c3ccc(Cl)cn3)ccc2Cl)(C(F)F)[C@H]2C[C@H]2O1` (racemic) [Example 97, N-(3-(((1R,S), (5S,R), (6R,S))-3-amino-5-(difluoromethyl)-2-oxa-4-azabicyclo[4.1.0]hept-3-en-5-yl)-4-chlorophenyl)-5-chloropicolinamide trifluoroacetate]?
**A.** IC50 [1]: 0.0371 µM; IC50 (Cathepsin D (Cat D)): 1280 µM; IC50 (BACE): 0.0505 µM

**Q.** What does the source list for `N#Cc1ccc(C(=O)Nc2cc(F)c(Cl)c([C@]3(CF)N=C(N)O[C@H]4C[C@H]43)c2)nc1` (racemic) [Example 136, N-(3-((1R/S,5S/R,6R/S)-3-amino-5-(fluoromethyl)-2-oxa-4-4-azabicyclo[4.1.0]hept-3-en-5-yl)-4-chloro-5-fluorophenyl)-5-cyanopicolinamide]?
**A.** IC50 [1]: 0.12 µM; IC50 (Cathepsin D (Cat D)): 491 µM; IC50 (BACE): 0.0214 µM

**Q.** How did the IC50 [1] turn out when `CSc1c(F)cc(NC(=O)c2ccc(Cl)cn2)cc1[C@@]1(CF)N=C(N)O[C@@H]2C[C@@H]21` (racemic) [Example 141, N-(3-(((1S,R),(5S,R),(6R,S))-3-amino-5-(fluoromethyl)-2-oxa-4-azabicyclo[4.1.0]hept-3-en-5-yl)-5-fluoro-4-(methylthio)phenyl)-5-chloropicolinamide] was run?
**A.** Its IC50 is greater than 40 µM.

**Q.** What about the IC50 (Cathepsin D (Cat D)) of the same compound?
**A.** Its IC50 is 655 µM.

**Q.** And the IC50 (BACE)?
**A.** The IC50 was greater than 15.6 µM.

**Q.** For `COc1cnc(C(=O)Nc2cc(F)c(Cl)c([C@]3(CF)N=C(N)O[C@H]4C[C@H]43)c2)cn1` (racemic) [Example 152, N-(3-([1(S,R),5(R,S),6(S,R)]-3-amino-5-(fluoromethyl)-2-oxa-4-azabicyclo[4.1.0]hept-3-en-5-yl)-4-chloro-5-fluorophenyl)-5-methoxypyrazine-2-carboxamide compound with N-(3-((1S,5R,6S)-3-amino-5-(fluoromethyl)-2-oxa-4-azabicyclo[4.1.0]hept-3-en-5-yl)-4-chloro-5-fluorophenyl)-5-methoxypyrazine-2-carboxamide (1:1)], which IC50 [1] is on record?
**A.** Its IC50 is 0.128 µM.

**Q.** What about the IC50 (Cathepsin D (Cat D)) of the same compound?
**A.** Its IC50 is 404 µM.

**Q.** And the IC50 (BACE)?
**A.** Its IC50 is 0.0476 µM.
